Reference: ChEMBL document CHEMBL4831486, “Design, synthesis and biological evaluation of pleuromutilin-Schiff base hybrids as potent anti-MRSA agents in vitro and in vivo” (Eur J Med Chem, 2021)
≈ marks a conversion by molar mass, not a printed value.

Experiments:
Staphylococcus aureus [1] = experiment: Antibacterial activity against Methycillin-resistant Staphylococcus aureus ATCC 43300 assessed as inhibition of bacterial growth measured after 24 hrs by broth dilution method; assay type: functional
Staphylococcus aureus [2] = experiment: Antibacterial activity against Staphylococcus aureus ATCC 29213 assessed as inhibition of bacterial growth measured after 24 hrs by broth dilution method; assay type: functional
Staphylococcus aureus [3] = experiment: Antibacterial activity against Staphylococcus aureus AD3 assessed as inhibition of bacterial growth measured after 24 hrs by broth dilution method; assay type: functional
Staphylococcus aureus [4] = experiment: Antibacterial activity against Staphylococcus aureus 144 assessed as inhibition of bacterial growth measured after 24 hrs by broth dilution method; assay type: functional
Escherichia coli [5] = experiment: Antibacterial activity against Escherichia coli ATCC 25922 assessed as inhibition of bacterial growth measured after 24 hrs by broth dilution method; assay type: functional
Staphylococcus aureus [6] = experiment: Bactericidal activity against Methycillin-resistant Staphylococcus aureus ATCC 43300 assessed as inhibition of bacterial growth measured after 96 hrs by broth dilution method; assay type: functional
Staphylococcus aureus [7] = experiment: Bactericidal activity against Staphylococcus aureus ATCC 29213 assessed as inhibition of bacterial growth measured after 96 hrs by broth dilution method; assay type: functional
Staphylococcus aureus [8] = experiment: Bactericidal activity against Staphylococcus aureus AD3 assessed as inhibition of bacterial growth measured after 96 hrs by broth dilution method; assay type: functional
Staphylococcus aureus [9] = experiment: Bactericidal activity against Staphylococcus aureus 144 assessed as inhibition of bacterial growth measured after 96 hrs by broth dilution method; assay type: functional
Escherichia coli [10] = experiment: Bactericidal activity against Escherichia coli ATCC 25922 assessed as inhibition of bacterial growth measured after 96 hrs by broth dilution method; assay type: functional
RAW264.7 [11] = experiment: Cytotoxicity against mouse RAW264.7 cells assessed as reduced cell viability at 4 ug/ml measured after 16 hrs by MTT assay; assay type: cell-based; details: raw264.7, 16 h, dose 4 µg/ml
HepG2 = experiment: Cytotoxicity against human HepG2 cells assessed as reduced cell viability at 4 ug/ml measured after 16 hrs by MTT assay; assay type: cell-based; details: hepg2, 16 h, dose 4 µg/ml
Staphylococcus aureus [12] = experiment: Bactericidal activity against methicillin-resistant Staphylococcus aureus ATCC 43300 assessed as reduction in bacterial growth at 2X MIC measured for 24 hrs by time kill assay; assay type: functional; design: scale not given: the % may be the effect or the level left
Staphylococcus aureus [13] = experiment: (§1) Antibacterial activity against methicillin-resistant Staphylococcus aureus ATCC 43300 assessed as post antibiotic effect by measuring time required for increase in 1 log10 CFU/ml of bacteria at 2X MIC incubated for 2 hrs followed by compound washout and measured after 20 hrs by time-kill assay (reference value: 2.04 hrs); assay type: functional
Staphylococcus aureus [14] = experiment: as §1, with “4X” for “2X”; assay type: functional
Staphylococcus aureus [15] = experiment: Antibacterial activity against methicillin-resistant Staphylococcus aureus ATCC 43300 infected in neutropenic CD1 mouse model of thigh infection assessed as reduction in bacterial colony forming unit in thigh at 20 mg/kg, iv qd measured after 24 hrs relative to control; assay type: functional
Staphylococcus aureus [16] = experiment: Antibacterial activity against methicillin-resistant Staphylococcus aureus ATCC 43300 assessed as inhibition of bacterial growth measured after 8 passages at sub-MIC concentration incubated for 24 hrs by resistant development assay; assay type: functional
RAW264.7 [17] = experiment: Cytotoxicity against mouse RAW264.7 cells assessed as reduced cell viability at 4 ug/ml measured after 16 hrs by MTT assay relative to control; assay type: cell-based; details: raw264.7, 16 h, at 4 µg/mL
Staphylococcus aureus [18] = experiment: Bactericidal activity against methicillin-resistant Staphylococcus aureus ATCC 43300 assessed as reduction in bacterial growth at 4X MIC measured for 24 hrs by time kill assay; assay type: functional; design: scale not given: the % may be the effect or the level left
Staphylococcus aureus [19] = experiment: as §1, with “2.51” for “2.04”; assay type: functional
Staphylococcus aureus [20] = experiment: as §1, with “4X” for “2X”, “2.51” for “2.04”; assay type: functional
Staphylococcus aureus [21] = experiment: as §1, with “2.44” for “2.04”; assay type: functional
Staphylococcus aureus [22] = experiment: as §1, with “4X” for “2X”, “2.44” for “2.04”; assay type: functional

| SMILES | MIC (Staphylococcus aureus [1]) [µg/mL] | MIC (Staphylococcus aureus [2]) [µg/mL] | MIC (Staphylococcus aureus [3]) [µg/mL] | MIC (Staphylococcus aureus [4]) [µg/mL] | MIC (Escherichia coli [5]) [µg/mL] | MBC (Staphylococcus aureus [6]) [µg/mL] | MBC (Staphylococcus aureus [7]) [µg/mL] | MBC (Staphylococcus aureus [8]) [µg/mL] | MBC (Staphylococcus aureus [9]) [µg/mL] | MBC (Escherichia coli [10]) [µg/mL] | Activity (RAW264.7 [11]) | Activity (HepG2) | further results |
| --- | --- | --- | --- | --- | --- | --- | --- | --- | --- | --- | --- | --- | --- |
| C=C[C@]1(C)C[C@@H](OC(=O)CSc2nnc(C)n2/N=C/c2ccc(N3CCOCC3)cc2)[C@]2(C)[C@H](C)CC[C@]3(CCC(=O)[C@H]32)[C@@H](C)[C@@H]1O | 0.5 (≈ 0.753 µM) | 1 (≈ 1.51 µM) | 1 (≈ 1.51 µM) | 2 (≈ 3.01 µM) | > 64 | 1 (≈ 1.51 µM) | 2 (≈ 3.01 µM) | 4 (≈ 6.03 µM) | 4 (≈ 6.03 µM) | > 64 | Non-Toxic | Non-Toxic | – |
| C=C[C@]1(C)C[C@@H](OC(=O)CSc2nnc(C)n2/N=C/c2ccc(-c3ccccn3)cc2)[C@]2(C)[C@H](C)CC[C@]3(CCC(=O)[C@H]32)[C@@H](C)[C@@H]1O | 0.25 (≈ 0.381 µM) | 0.5 (≈ 0.762 µM) | 0.5 (≈ 0.762 µM) | 1 (≈ 1.52 µM) | > 64 | 1 (≈ 1.52 µM) | 1 (≈ 1.52 µM) | 2 (≈ 3.05 µM) | 4 (≈ 6.1 µM) | > 64 | Non-Toxic | Non-Toxic | Activity (Staphylococcus aureus [12]): 99.9%; Time (Staphylococcus aureus [13]): 4.06 h; Time (Staphylococcus aureus [14]): 4.27 h; Activity (Staphylococcus aureus [15]): -2.28 log10CFU/ml; MIC (Staphylococcus aureus [16]): 2 µg/mL (≈ 3.05 µM) |
| C=C[C@]1(C)C[C@@H](OC(=O)CSc2nnc(C)n2/N=C/c2ccc(N3CCCC3)cc2)[C@]2(C)[C@H](C)CC[C@]3(CCC(=O)[C@H]32)[C@@H](C)[C@@H]1O | 1 (≈ 1.54 µM) | 2 (≈ 3.09 µM) | 2 (≈ 3.09 µM) | 2 (≈ 3.09 µM) | > 64 | 2 (≈ 3.09 µM) | 4 (≈ 6.17 µM) | 4 (≈ 6.17 µM) | 4 (≈ 6.17 µM) | > 64 | Non-Toxic | Non-Toxic | – |
| C=C[C@]1(C)C[C@@H](OC(=O)CSc2nnc(C)n2/N=C/c2ccc(N(C)C)cc2)[C@]2(C)[C@H](C)CC[C@]3(CCC(=O)[C@H]32)[C@@H](C)[C@@H]1O | 0.5 (≈ 0.804 µM) | 0.5 (≈ 0.804 µM) | 1 (≈ 1.61 µM) | 2 (≈ 3.22 µM) | > 64 | 1 (≈ 1.61 µM) | 2 (≈ 3.22 µM) | 4 (≈ 6.43 µM) | 4 (≈ 6.43 µM) | > 64 | Non-Toxic | Non-Toxic | – |
| C=C[C@]1(C)C[C@@H](OC(=O)CSc2nnc(C)n2/N=C/c2ccc(C)cc2)[C@]2(C)[C@H](C)CC[C@]3(CCC(=O)[C@H]32)[C@@H](C)[C@@H]1O | 0.5 (≈ 0.843 µM) | 1 (≈ 1.69 µM) | 1 (≈ 1.69 µM) | 2 (≈ 3.37 µM) | > 64 | 1 (≈ 1.69 µM) | 2 (≈ 3.37 µM) | 4 (≈ 6.75 µM) | 4 (≈ 6.75 µM) | > 64 | – | Non-Toxic | Activity (RAW264.7 [17]): 30% |
| C=C[C@]1(C)C[C@@H](OC(=O)CSc2nnc(C)n2/N=C/c2ccc(O)cc2)[C@]2(C)[C@H](C)CC[C@]3(CCC(=O)[C@H]32)[C@@H](C)[C@@H]1O | 0.25 (≈ 0.42 µM) | 0.5 (≈ 0.841 µM) | 0.5 (≈ 0.841 µM) | 1 (≈ 1.68 µM) | > 64 | 1 (≈ 1.68 µM) | 2 (≈ 3.36 µM) | 2 (≈ 3.36 µM) | 2 (≈ 3.36 µM) | > 64 | Non-Toxic | Non-Toxic | Activity (Staphylococcus aureus [18]): 99.9%; Time (Staphylococcus aureus [19]): 2.55 h; Time (Staphylococcus aureus [20]): 3.22 h |
| C=C[C@]1(C)C[C@@H](OC(=O)CSc2nnc(C)n2/N=C/c2ccc(N(CC)CC)cc2)[C@]2(C)[C@H](C)CC[C@]3(CCC(=O)[C@H]32)[C@@H](C)[C@@H]1O | 4 (≈ 6.15 µM) | 4 (≈ 6.15 µM) | 4 (≈ 6.15 µM) | 4 (≈ 6.15 µM) | > 64 | 4 (≈ 6.15 µM) | 8 (≈ 12.3 µM) | 16 (≈ 24.6 µM) | 8 (≈ 12.3 µM) | > 64 | Non-Toxic | Non-Toxic | – |
| C=C[C@]1(C)C[C@@H](OC(=O)CSCCN(CC)CC)[C@]2(C)[C@H](C)CC[C@]3(CCC(=O)[C@H]32)[C@@H](C)[C@@H]1O [TIAMULIN] | 0.5 (≈ 1.01 µM) | 1 (≈ 2.03 µM) | 1 (≈ 2.03 µM) | 1 (≈ 2.03 µM) | > 64 | 1 (≈ 2.03 µM) | 1 (≈ 2.03 µM) | 2 (≈ 4.05 µM) | 2 (≈ 4.05 µM) | > 64 | – | – | Time (Staphylococcus aureus [21]): 1.72 h; Time (Staphylococcus aureus [22]): 2.14 h; Activity (Staphylococcus aureus [15]): -1.4 log10CFU/ml; MIC (Staphylococcus aureus [16]): 32 µg/mL (≈ 64.8 µM) |
